Laboratory results reported in publication PMC12649353, “Bioavailability of Thymol Incorporated into Gastro-Resistant Self-Emulsifying Pellets in Rabbits” (Animals : an Open Access Journal from MDPI, 2025).
Values joined by “and” are separate entries in the source; they are usually repeats but may differ in a detail not shown here. Identical values can stand only once. Like-named read-outs stand apart in the source and are kept apart here.

Columns and labels:
[1] = Thymol stability in feed (HPLC); format: physicochemical; conditions: enteric SES pellets in feed
Procedure: Thymol evaporation in feed was analysed every week during thymol application using high-performance liquid chromatography (HPLC) according to the modified method of Oceľová [10] and Pisarčíková et al.. Samples were analysed in triplicate. Briefly, 2 mL of methanol was added to a glass tube containing 0.2 g of milled feed, and thymol was extracted in an ultrasonic bath. The methanolic extract was then analysed using the HPLC method with an Ultimate 3000 HPLC-system liquid chromatograph (Dionex, Sunnyvale, CA, USA). The chromatographic analyses were evaluated using Chromeleon® Software Version 6.80 SR10 Build 2906 (Thermo Fisher Scientific, Waltham, MA, USA).

[2] = Growth performance of broiler rabbits fed thymol pellets; format: in vivo; conditions: for live weight / average weight gain per rabbit / conversion ratio: EG
Procedure: The experiment lasted 28 days.
Body weight (BW) and feed intake (FI) were recorded individually once a week. The average daily FI, average daily weight gain (WG) and feed conversion ratio (FCR) were calculated at the end of the period (at 56 d of age and 63 d of age).

[3] = Thymol in plasma, tissues, large intestinal content and faeces (SPME GC/MS)
Procedure: A total of 48 rabbits of both sexes (an equal male-to-female ratio per treatment) at five weeks of age were randomly divided into two dietary treatment groups (24 rabbits in each); a control group (CG) fed a standard diet to which enteric pellets without thymol were added and an experimental group (EG) fed a standard diet into which enteric pellets with thymol (250 mg/kg) were incorporated. Plasma and tissue samples from the control group were used as blank samples to construct calibration curves. The rabbits of meat line M91, maternal albinotic line (cross breed New Zealand White, Bouscat rabbit, Argente Champagnet rabbit) and paternal acromalictic line (crossbreed Nitra’s rabbit, Californian rabbit, Big light silver) were used in this experiment. The animals were fed ad libitum and had free access to drinking water. All the experimental wire-net cages (61 cm × 34 cm × 33 cm) were kept in rooms with automatic temperature and humidity control through a digital thermograph (22 ± 4 °C, 70 ± 5%). A lighting regimen of 16 h light and 8 h dark was applied throughout the experiment. The experiment lasted 28 days. The EG rabbits received feed with thymol pellets for 21 days (56 d of age) and for the next 7 days (63 d of age) received pellets without thymol incorporated into feed.
To determine the thymol content in plasma, blood (1.5 mL) from nine rabbits was collected from the marginal ear vein (vena auricularis) into heparinised Eppendorf tubes, and plasma was obtained after centrifugation at 1180× g for 15 min. The gastrointestinal tract was removed from the body cavity and was divided into the small intestine (duodenum and jejunum), caecum and colon (n = 9). Caecum and colon contents were removed, and the small intestinal lumen was gently washed with a 0.9% NaCl solution. The obtained samples of duodenal wall (DW), jejunal wall (JW) and gut content together with plasma, liver, kidney, muscle (longissimus thoracis et lumborum, LTL) and spleen tissue, fat, and faeces were immediately frozen in liquid nitrogen and stored at −70 °C until analysed. All samples were collected on both experimental days (56 or 63 d of age).
Thymol was determined using solid-phase microextraction (SPME) coupled with gas chromatography/mass spectrometry (GC/MS). The analytical system comprised an Agilent 7890A gas chromatograph (Agilent Technologies, Wilmington, DE, USA) interfaced with an Agilent 5975C Mass Selective Detector (VL MSD with Triple-Axis Detector), Agilent Technologies, Wilmington, DE, USA). Chromatographic separation was achieved on an HP-5MS capillary column (Agilent 19091S-433) with dimensions of 30 m in length, 0.250 mm inner diameter and 0.25 μm film thickness. Helium served as the carrier gas under strictly controlled flow (an initial flow rate of 2.77 mL/min and a post-run flow of 1.3 mL/min) and inlet pressure (approximately 23.27 psi). Sample preparation was carried out using solid-phase microextraction (SPME), a solvent-free and efficient extraction technique that utilises the adsorption of analytes onto a polymer-coated fibre. For this purpose, a 65 μm polydimethylsiloxane/divinylbenzene (PDMS/DVB) StableFlex fibre assembly (23Ga, Supelco 57293-U, Sigma-Aldrich, St. Louis, MO, USA) was employed in combination with a PAL autosampler (CTC Analytics, Zwingen, Switzerland). Due to fibre wear, the SPME fibre was replaced after every 40 to 60 samples to ensure consistent extraction performance.
For determination of the total content of thymol plasma and homogenized tissue samples were enzymatically hydrolysed with β-glucuronidase from Helix pomatia (Sigma-Aldrich, St. Louis, MO, USA) at 37 °C and pH 5 for 30 min to cleave thymol conjugates. Following hydrolysis, samples were salted out with sodium chloride (1.00 g), acidified with phosphoric acid (85%) and spiked with an o-cresol internal standard. All reagent concentrations and incubation conditions were applied as described in the previous study by Oceľová et al..

[4] = set-up: method as in earlier work; conditions: weak acid; cited from earlier work
[5] = cited from earlier work
[6] = thymol 250 mg/kg feed, 56 d of age
[7] = powder form, after thymol withdrawal
[8] = same concentration of thymol, powder non-pelleted form

Compound: Cc1ccc(C(C)C)c(O)c1 [thymol, Thymol]
- concentration of thymol in feed ([1]; 0 d of thymol application): 246.1 ± 5.8 µg/g DM
- concentration of thymol in feed ([1]; 7 d of thymol application): 197.8 ± 8.3 µg/g DM
- concentration of thymol in feed ([1]; 14 d of thymol application): 221.9 ± 5.1 µg/g DM
- live weight ([2]; 63 d of age (7 d after thymol withdrawal)): 2525 ± 63.2 g
- average weight gain per rabbit ([2]; 63 d of age (after withdrawal)): 40.24 ± 2.94 g/day
- conversion ratio ([2]; 63 d of age (after withdrawal)): 4.24 ± 0.29
- average weight gain per rabbit [2, 6]: 36.25 ± 1.48 g/day
- conversion ratio [2, 6]: 4.44 ± 0.25
- live weight ([2]; thymol 250 mg/kg feed, 56 d of age (21 d with thymol)): 2497 ± 46.9 g
- growth performance ([2]; thymol addition 250 mg/kg feed vs control): not influenced
- thymol in muscle ([3]; after thymol withdrawal (7 d)): below LOQ
- thymol in plasma ([3]; after thymol withdrawal (7 d)): below LOQ
- thymol in spleen ([3]; after thymol withdrawal (7 d)): below LOQ
- Spearman correlation (rs) of thymol concentration, DW and kidney ([3]; both, rabbit, in vivo): 0.9833
- Spearman correlation (rs) of thymol concentration, DW and muscle ([3]; both, rabbit, in vivo): 0.8167
- Spearman correlation (rs) of thymol concentration, JW and muscle ([3]; both, rabbit, in vivo): 0.8500
- Spearman correlation (rs) of thymol concentration, plasma and kidney ([3]; both, rabbit, in vivo): 0.9167
- Spearman correlation (rs) of thymol concentration, plasma and muscle ([3]; both, rabbit, in vivo): 0.8667
- thymol concentration in DW, times higher than in JW ([3]; both, rabbit, in vivo): 1.1 times
- thymol concentration in DW, times higher than in caecum ([3]; both, rabbit, in vivo): 1.9 times
- thymol concentration in DW, times higher than in colon ([3]; both, rabbit, in vivo): 1.3 times
- concentration at 21 d ([3]; both, rabbit, in vivo, 250 mg/kg): 213 ng/mL and 753 ng/g
- Spearman correlation (rs) of thymol concentration, plasma and DW ([3]; both, rabbit, in vivo, 21 d): 0.9333
- thymol concentration in DW, times higher than in JW ([3]; both, rabbit, in vivo, 21 d): 1.4 times
- thymol concentration in DW, times higher than in caecum ([3]; both, rabbit, in vivo, 21 d): 1.7 times
- thymol concentration in DW, times higher than in colon ([3]; both, rabbit, in vivo, 21 d): 1.3 times
- thymol in all tissues (plasma, liver, kidney, spleen, fat, muscle) and entire intestinal tract ([3]; rabbit, in vivo): above LOQ
- dissociation constant pKA [4]: 10.62
- thymol in all intestinal segments and organs [5, 7]: below the detection limit
- thymol in spleen [5, 7]: not detected
- thymol in muscle and fat tissues ([5]; powder form, during application): below the detection limit
- thymol concentration in DW, times lower than in caecum [5, 8]: 3.3 times
- thymol concentration in DW, times lower than in colon [5, 8]: 2.5 times
